From patent US6610677B2, “Pyrazole compounds useful as protein kinase inhibitors” (Vertex Pharmaceuticals Incorporated, priority 2000, dated 2003)

Molecular target: T1, GSK-3β (AA 1-420) (Homo sapiens, UniProt P49841)
T1 construct: GSK-3β (AA 1-420)
Test: Ki determination for the inhibition of GSK-3 (coupled enzyme system)
Assay type: biochemical
Conditions: 20 μM ATP, 300 μM peptide, 20 nM GSK-3β, 30° C
Procedure: Compounds were screened for their ability to inhibit GSK-3β (AA 1-420) activity using a standard coupled enzyme system (Fox et al. (1998) Protein Sci. 7, 2249). Reactions were carried out in a solution containing 100 mM HEPES (pH 7.5), 10 mM MgCl2, 25 mM NaCl, 300 μM NADH, 1 mM DTT and 1.5% DMSO. Final substrate concentrations in the assay were 20 μM ATP (Sigma Chemicals, St Louis, Mo.) and 300 μM peptide (HSSPHQS(PO3H2)EDEEE, American Peptide, Sunnyvale, Calif.). Reactions were carried out at 30° C. and 20 nM GSK-3β. Final concentrations of the components of the coupled enzyme system were 2.5 mM phosphoenolpyruvate, 300 μM NADH, 30 μg/ml pyruvate kinase and 10 μg/ml lactate dehydrogenase.
An assay stock buffer solution was prepared containing all of the reagents listed above with the exception of ATP and the test compound of interest. The assay stock buffer solution (175 μl) was incubated in a 96 well plate with 5 μl of the test compound of interest at final concentrations spanning 0.002 μM to 30 μM at 30° C. for 10 min. Typically, a 12 point titration was conducted by preparing serial dilutions (from 10 mM compound stocks) with DMSO of the test compounds in daughter plates. The reaction was initiated by the addition of 20 μl of ATP (final concentration 20 μM). Rates of reaction were obtained using a Molecular Devices Spectramax plate reader (Sunnyvale, Calif.) over 10 min at 30° C. The Ki values were determined from the rate data as a function of inhibitor concentration.

T1 sequence (P49841 whole entry, the tested form may be a part): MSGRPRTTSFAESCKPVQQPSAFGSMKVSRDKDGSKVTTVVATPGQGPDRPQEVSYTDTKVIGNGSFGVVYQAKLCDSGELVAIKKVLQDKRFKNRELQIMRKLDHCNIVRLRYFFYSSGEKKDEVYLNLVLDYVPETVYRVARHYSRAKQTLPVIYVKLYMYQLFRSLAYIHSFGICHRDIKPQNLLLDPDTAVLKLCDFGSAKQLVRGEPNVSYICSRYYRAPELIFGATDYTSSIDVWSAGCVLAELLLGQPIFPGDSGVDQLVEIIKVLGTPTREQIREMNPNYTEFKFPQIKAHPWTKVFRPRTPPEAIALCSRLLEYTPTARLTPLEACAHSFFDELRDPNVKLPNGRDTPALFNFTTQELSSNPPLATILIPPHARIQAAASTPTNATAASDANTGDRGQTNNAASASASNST

Row | Ki [nM] | SMILES
1 | < 100 | Fc1cc(F)c2[nH]nc(Nc3nc(-c4cc(C(F)(F)F)ccc4Cl)nc4ccccc34)c2c1 [II-88, [2-(2-Chloro-5-trifluoromethyl-phenyl)-quinazolin-4-yl]-(5,7-Difluoro-1H-indazol-3-yl)-amine]
2 | 1000 to 20000 | Fc1cccc2[nH]nc(Nc3nc(-c4ccccc4C(F)(F)F)nc4ccccc34)c12 [II-89, (4-Fluoro-1H-indazol-3-yl)-[2-(2-trifluoromethyl-phenyl)-quinazolin-4-yl]-amine]
3 | < 100 | COc1cccc2c(Nc3n[nH]c4c(F)cccc34)nc(-c3ccccc3C(F)(F)F)nc12 [II-92, (7-Fluoro-1H-indazol-3-yl)-[8-methoxy-2-(2-trifluoromethyl-phenyl)-quinazolin-4-yl]-amine]
4 | < 100 | O=[N+]([O-])c1ccc(-c2nc(Nc3n[nH]c4c(F)cc(F)cc34)c3ccccc3n2)c(Cl)c1 [II-95, [2-(2-Chloro-4-nitro-phenyl)-quinazolin-4-yl]-(5,7-difluoro-1H-indazol-3-yl)-amine]
5 | 100 to 1000 | FC(F)(F)c1ccccc1-c1nc(Nc2n[nH]c3c2CCCC3)c2ccccc2n1 [II-97, (4,5,6,7-Tetrahydro-1H-indazol-3-yl)-[2-(2-trifluoromethyl-phenyl)-quinazolin-4-yl]-amine]
6 | 1000 to 20000 | FC(F)(F)c1ccccc1-c1nc(Nc2n[nH]c3cccnc23)c2ccccc2n1 [II-98, (1H-Pyrazolo[4,3-b]pyridin-3-yl)-[2-(2-trifluoromethyl-phenyl)-quinazolin-4-yl]-amine]
7 | 1000 to 20000 | Cc1cc(C)c2c(Nc3nc(-c4ccccc4C(F)(F)F)nc4ccccc34)n[nH]c2n1 [II-100]
8 | 100 to 1000 | O=c1cc2[nH]nc(Nc3nc(-c4ccccc4C(F)(F)F)nc4ccccc34)c2nn1-c1ccccc1 [II-101, (6-Oxo-5-phenyl-5,6-dihydro-1H-pyrazolo[4,3-c]pyridazin-3-yl)-[2-(2-trifluoromethyl-phenyl)-quinazolin-4-yl]-amine]
9 | < 100 | FC(F)(F)c1ccccc1-c1nc(Nc2n[nH]c3ccccc23)c2cccnc2n1 [II-108, (1H-Indazol-3-yl)-[2-(2-trifluoromethyl-phenyl)-pyrido[2,3-d]pyrimidin-4-yl]-amine]
10 | < 100 | Fc1cc(F)c2[nH]nc(Nc3nc(-c4ccccc4C(F)(F)F)nc4ncccc34)c2c1 [II-109, (5,7-Difluoro-1H-indazol-3-yl)-[2-(2-trifluoromethyl-phenyl)-pyrido[2,3-d]pyrimidin-4-yl]-amine]
11 | < 100 | Clc1ccccc1-c1nc(Nc2n[nH]c3ccccc23)c2cccnc2n1 [II-110, [2-(2-Chloro-phenyl)-pyrido[2,3-d]pyrimidin-4-yl]-(1H-indazol-3-yl)-amine]
12 | < 100 | Fc1ccc2[nH]nc(Nc3nc(-c4ccccc4C(F)(F)F)nc4c3CCCCCC4)c2c1 [II-111, (5-Fluoro-1H-indazol-3-yl)-[2-(2-trifluoromethyl-phenyl)-5,6,7,8,9,10-hexahydro-cyclooctapyrimidin-4-yl]-amine]
13 | < 100 | Fc1ccc2[nH]nc(Nc3nc(-c4ccccc4Cl)nc4c3CCC4)c2c1 [II-112, [2-(2-Chloro-phenyl)-6,7-dihydro-5H-cyclopentapyrimidin-4-yl]-(5-fluoro-1H-indazol-3-yl)-amine]
14 | < 100 | FC(F)(F)c1ccccc1-c1nc2c(c(Nc3n[nH]c4ccccc34)n1)CCC2 [II-113, (1H-Indazol-3-yl)-[2-(2-trifluoromethyl-phenyl)-6,7-dihydro-5H-cyclopentapyrimidin-4-yl]-amine]
15 | < 100 | Fc1cccc2c(Nc3nc(-c4ccccc4C(F)(F)F)nc4c3CCC4)n[nH]c12 [II-114, (7-Fluoro-1H-indazol-3-yl)-[2-(2-trifluoromethyl-phenyl)-6,7-dihydro-5H-cyclopentapyrimidin-4-yl]-amine]
16 | < 100 | Fc1cc(F)c2[nH]nc(Nc3nc(-c4ccccc4C(F)(F)F)nc4c3CCC4)c2c1 [II-115, (5,7-Difluoro-1H-indazol-3-yl)-[2-(2-trifluoromethyl-phenyl)-6,7-dihydro-5H-cyclopentapyrimidin-4-yl]-amine]
17 | < 100 | Clc1ccccc1-c1nc2c(c(Nc3n[nH]c4ccccc34)n1)CCC2 [II-116, [2-(2-Chloro-phenyl)-6,7-dihydro-5H-cyclopentapyrimidin-4-yl]-(1H-indazol-3-yl)-amine]
18 | < 100 | Fc1cccc2c(Nc3nc(-c4ccccc4Cl)nc4c3CCC4)n[nH]c12 [II-117, [2-(2-Chloro-phenyl)-6,7-dihydro-5H-cyclopentapyrimidin-4-yl]-(7-fluoro-1H-indazol-3-yl)-amine]
19 | < 100 | Fc1cc(F)c2[nH]nc(Nc3nc(-c4ccccc4Cl)nc4c3CCC4)c2c1 [II-118, [2-(2-Chloro-phenyl)-6,7-dihydro-5H-cyclopentapyrimidin-4-yl]-(5,7-difluoro-1R-indazol-3-yl)-amine]

Row | Ki [nM] | SMILES
20 | < 100 | FC(F)(F)c1ccccc1-c1nc2c(c(Nc3n[nH]c4ccccc34)n1)CCCCCC2 [II-119, (1H-Indazol-3-yl)-[2-(2-trifluoromethyl-phenyl)-5,6,7,8,9,10-hexahydro-cyclooctapyrimidin-4-yl]-amine]
21 | < 100 | Fc1cccc2c(Nc3nc(-c4ccccc4C(F)(F)F)nc4c3CCCCCC4)n[nH]c12 [II-120, (7-Fluoro-1H-indazol-3-yl)-[2-(2-trifluoromethyl-phenyl)-5,6,7,8,9,10-hexahydro-cyclooctapyrimidin-4-yl]-amine]
22 | < 100 | Fc1cc(F)c2[nH]nc(Nc3nc(-c4ccccc4C(F)(F)F)nc4c3CCCCCC4)c2c1 [II-121, (5,7-Difluoro-1H-indazol-3-yl)-[2-(2-trifluoromethyl-phenyl)-5,6,7,8,9,10-hexahydro-cyclooctapyrimidin-4-yl]-amine]
23 | < 100 | Fc1ccc2c(Nc3nc(-c4ccccc4C(F)(F)F)nc4ccccc34)n[nH]c2c1 [II-124, (6-Fluoro-1H-indazol-3-yl)-[2-(2-trifluoromethyl-phenyl)-quinazolin-4-yl]-amine]
24 | < 100 | COC(=O)c1ccc2[nH]nc(Nc3nc(-c4ccccc4C(F)(F)F)nc4ccccc34)c2c1 [II-125, 3-[2-(2-Trifluoromethyl-phenyl)-quinazolin-4-ylamino]-1H-indazole-5-carboxylic acid methyl ester]
25 | < 100 | Cc1cc(Nc2nc(-c3cccc4ccccc34)nc3ccccc23)n[nH]1 [II-208, (5-Methyl-2H-pyrazol-3-yl)-[2-(2-naphthyl-1-yl)-quinazolin-4-yl]-amine]
26 | < 100 | Cc1cc(Nc2nc(-c3ccccc3)nc3c2CCCCC3)n[nH]1 [III-8, (5-Methyl-2H-pyrazol-3-yl)-(2-phenyl-6,7,8,9-tetrahydro-5H-cycloheptapyrimidin-4-yl)-amine]
27 | 100 to 1000 | Cc1cc(Nc2nc(-c3ccncc3)nc3ccc(Cl)cc23)[nH]n1 [III-29, (6-Chloro-2-pyridin-4-yl-quinazolin-4-yl)-(5-methyl-2H-pyrazol-3-yl)-amine]
28 | 100 to 1000 | Cc1cc(Nc2nc(-c3ccc4c(c3)OCO4)nc3ccccc23)[nH]n1 [III-43, (2-Benzo[1,3]dioxol-5-yl-quinazolin-4-yl)-(5-methyl-2H-pyrazol-3-yl)-amine]
29 | < 100 | Cc1cc(Nc2nc(-c3ccsc3)nc3ccccc23)[nH]n1 [III-62, (5-Methyl-2H-pyrazol-3-yl)-(2-thiophen-3-yl-quinazolin-4-yl)-amine]
30 | 1000 to 20000 | CC(C)NC(=O)c1cc(Nc2nc(-c3ccccc3)nc3ccccc23)[nH]n1 [III-81]
31 | 1000 to 20000 | COCCNC(=O)c1cc(Nc2nc(-c3ccccc3)nc3ccccc23)[nH]n1 [III-83]
32 | 100 to 1000 | CCCNC(=O)c1cc(Nc2nc(-c3ccccc3)nc3ccccc23)[nH]n1 [III-88, (2-Phenyl-quinazolin-4-yl)-(5-propylcarbamoyl-2H-pyrazol-3-yl)-amine]
33 | 100 to 1000 | O=C(NC1CC1)c1cc(Nc2nc(-c3ccccc3)nc3ccccc23)[nH]n1 [III-90, (5-Cyclopropylcarbamoyl-2H-pyrazol-3-yl)-(2-phenyl-quinazolin-4-yl)-amine]
34 | 1000 to 20000 | CC(C)CNC(=O)c1cc(Nc2nc(-c3ccccc3)nc3ccccc23)[nH]n1 [III-91, (5-Isobutylcarbamoyl-2H-pyrazol-3-yl)-(2-phenyl-quinazolin-4-yl)-amine]
35 | 1000 to 20000 | Cc1cccc(NC(=O)c2cc(Nc3nc(-c4ccccc4)nc4ccccc34)[nH]n2)c1 [III-94, (2-Phenyl-quinazolin-4-yl)-(5-m-tolylcarbamoyl-2H-pyrazol-3-yl)-amine]
36 | 1000 to 20000 | Cc1ccc(NC(=O)c2cc(Nc3nc(-c4ccccc4)nc4ccccc34)[nH]n2)cc1 [III-95, (2-Phenyl-quinazolin-4-yl)-(5-p-tolylcarbamoyl-2H-pyrazol-3-yl)-amine]
37 | 1000 to 20000 | CNC(=O)c1cc(Nc2nc(-c3ccccc3)nc3ccccc23)[nH]n1 [III-96, (5-Methylcarbamoyl-2H-pyrazol-3-yl)-(2-phenyl-quinazolin-4-yl)-amine]
38 | 1000 to 20000 | O=C(c1cc(Nc2nc(-c3ccccc3)nc3ccccc23)[nH]n1)N1CCOCC1 [III-97, [5-(Morpholine-4-carbonyl)-2H-pyrazol-3-yl]-(2-phenyl-quinazolin-4-yl)-amine]
